Reference: publication PMC11714206, “Massively Parallel Screening of Toll/Interleukin‐1 Receptor (TIR)‐Derived Peptides Reveals Multiple Toll‐Like Receptors (TLRs)‐Targeting Immunomodulatory Peptides” (Advanced Science, 2024)

Molecular target: T1, MyD88^TIR (Homo sapiens, UniProt Q99836)
T1 construct: MyD88 (residues 148–296); 6xHis; made in house; host or cells: E. coli BL21 (DE3)
Experiment: T‐Surf phage library (P8 and P3) selection against MyD88^TIR, four rounds, NGS read counts
Format: binding
Conditions: for P8_MyD88 Rank (after) / P8_MyD88 Rank (before): P8 library; for P3_MyD88 Rank (after) / P3_MyD88 Rank (before): P3 library; for Population: 4th round of selection against MyD88 TIR, share of NGS reads
How it was run: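 Read counts come from NGS of phage pools enriched over four selection rounds on the plate‐coated TIR domain (5 µg mL^−1). Each round: 1 h phage binding at room temperature after 0.2% BSA blocking, Tween washes, acid elution, amplification in E. coli TG1 with M13KO7 helper.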

[1] = selection against MyD88, rank by count after grouping
[2] = selection against MyD88, rank by count before grouping
[3] = 4R selection against MyD88, rank after grouping
[4] = 4R selection against MyD88, rank before grouping
[5] = P3_MyD88: rank by count after grouping
[6] = P3_MyD88: rank by count before grouping
[7] = selection against MyD88 TIR, rank by count after grouping
[8] = selection against MyD88 TIR, rank by count before grouping
[9] = P8_MyD88: rank by count after grouping
[10] = P8_MyD88: rank by count before grouping
[11] = P3_MyD88 pool: P3 T-Surf phage library
[12] = selection against MyD88, rank after grouping
[13] = selection against MyD88, rank before grouping
[14] = P8_MyD88: rank by NGS read count after grouping
[15] = P8_MyD88: rank by NGS read count before grouping
[16] = P8_MyD88 pool: P8 T-Surf phage library

T1 sequence (Q99836 148-296): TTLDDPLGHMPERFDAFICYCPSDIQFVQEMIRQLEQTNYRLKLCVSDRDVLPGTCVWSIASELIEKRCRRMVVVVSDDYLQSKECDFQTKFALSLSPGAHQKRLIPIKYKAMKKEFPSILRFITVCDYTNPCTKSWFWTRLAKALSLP

WALDELLKILHADETM
P8_MyD88 Rank (after) [1]: 687 | P8_MyD88 Rank (before) [2]: 1492

SREYASCSWALTELVH
P3_MyD88 Rank (after) [3]: 647 | P3_MyD88 Rank (before) [4]: 3106

WALDLEWFYERLFSQM
P8_MyD88 Rank (after) [3]: 587 | P8_MyD88 Rank (before) [4]: 1517

SELRVVDDGRVSPMAM
Rank (after) [5]: 464 | Rank (before) [6]: 3019

DPQGLGWFYERLVSLF
P8_MyD88 Rank (after) [7]: 223 | P8_MyD88 Rank (before) [8]: 2678

DWVLDYLLPNLERPAG
Rank (after) [9]: 424 | Rank (before) [10]: 2396

LKVESWHQAREKAGKL
Rank (after) [5]: 400 | Rank (before) [6]: 2518

SSFRVGLWRLLELSKK
Population [11]: 0.00291%

DPQDREWCYERLVSLL
P8_MyD88 Rank (after) [12]: 516 | P8_MyD88 Rank (before) [13]: 2958

LKVERWRQSLEKAGKL
P3_MyD88 Rank (after) [7]: 217 | P3_MyD88 Rank (before) [8]: 2522

DPQDLAWVYERLVSPV
P8_MyD88 Rank (after) [3]: 628 | P8_MyD88 Rank (before) [4]: 2733

KEVEGWRDALTKVATI
Population [11]: 0.0032%

YELDFSHFWLFVGQAP
Rank (after) [14]: 1008 | Rank (before) [15]: 1929

LIRAPSVHDFRGFVGI
P3_MyD88 Rank (after) [3]: 672 | P3_MyD88 Rank (before) [4]: 2369

SSFREALWRLLGLSEK
P3_MyD88 Rank (after) [7]: 279 | P3_MyD88 Rank (before) [8]: 3225

LKVESWRQALAKAGRL
P3_MyD88 Rank (after) [7]: 197 | P3_MyD88 Rank (before) [8]: 2486

SSIREGLWRQLELSKK
P3_MyD88 Rank (after) [3]: 665 | P3_MyD88 Rank (before) [4]: 3277

LGTHEISKEMKIFATI
P3_MyD88 Rank (after) [12]: 571 | P3_MyD88 Rank (before) [13]: 2323

YAFTGHLHRYLVLRGA
P3_MyD88 Rank (after) [3]: 630 | P3_MyD88 Rank (before) [4]: 1502

YYDSRWALDELLKIL
P8_MyD88 Rank (after) [12]: 484 | P8_MyD88 Rank (before) [13]: 1678

KEVEGWRCADQSGEP
P3_MyD88 Rank (after) [3]: 666 | P3_MyD88 Rank (before) [4]: 3653

DPQDLEWFYERLVSLF
Population [16]: 0.0112%

GLSWGPYEWWIDLYDA
Rank (after) [14]: 889 | Rank (before) [15]: 2308

YAFTGHLHRDLVQRGL
Rank (after) [5]: 427 | Rank (before) [6]: 1521

DSLIWDRLLYSIKVTE
P8_MyD88 Rank (after) [1]: 737 | P8_MyD88 Rank (before) [2]: 3124

QYSDTLLEHTANFRM
Rank (after) [5]: 392 | Rank (before) [6]: 2842

KNLSNELVSKNILTFM
P3_MyD88 Rank (after) [7]: 260 | P3_MyD88 Rank (before) [8]: 3787

PENDNGGENAFINHIV
P3_MyD88 Rank (after) [3]: 635 | P3_MyD88 Rank (before) [4]: 2700

DSLFWDRLLYSLHVT
P8_MyD88 Rank (after) [7]: 219 | P8_MyD88 Rank (before) [8]: 355

WDYASNMEQFWDPLYY
P8_MyD88 Rank (after) [3]: 675 | P8_MyD88 Rank (before) [4]: 1642

YTAMTNSGFHTFRGND
Rank (after) [5]: 429 | Rank (before) [6]: 1711

NQWRNALTEAAHLSGW
P3_MyD88 Rank (after) [3]: 663 | P3_MyD88 Rank (before) [4]: 3520

DPQGLVCYYERLVSLL
P8_MyD88 Rank (after) [3]: 595 | P8_MyD88 Rank (before) [4]: 2662

YAFTVHLHRYLVQRGG
Rank (after) [5]: 448 | Rank (before) [6]: 1482

LGYDWIVWAYFVGIED
Rank (after) [14]: 894 | Rank (before) [15]: 3219

LKGGDSYFWSKQPYAL
Rank (after) [5]: 385 | Rank (before) [6]: 2529

VQWDDPWFWDKLAYA
Rank (after) [9]: 417 | Rank (before) [10]: 1009

EYRNESKSVWDIINAI
P8_MyD88 Rank (after) [3]: 642 | P8_MyD88 Rank (before) [4]: 3172

LKVESWRQALEKADKL
Population [11]: 0.00408%

DPQLLDWLYERLRRPV
Rank (after) [14]: 999 | Rank (before) [15]: 3024

PHDLDWLYERPVRLIL
Rank (after) [14]: 980 | Rank (before) [15]: 3412

KMQKWKDALYEAPNL
Rank (after) [5]: 113 | Rank (before) [6]: 1321

YELDFSHFWLFDGHATGEA
P8_MyD88 Rank (after) [7]: 239 | P8_MyD88 Rank (before) [8]: 1938

DFLLTILEAMKTKNQL
Rank (after) [9]: 148 | Rank (before) [10]: 159 | Population [16]: 0.00925%

PQAPEWSYERLVSLIL
Rank (after) [14]: 954 | Rank (before) [15]: 3417

YYDSRWALDELLKILDAKETM
Rank (after) [9]: 470 | Rank (before) [10]: 1677

PQDQEWFYERIVSLP
P8_MyD88 Rank (after) [1]: 726 | P8_MyD88 Rank (before) [2]: 3492

SRLCVMCWKNCVLPN
P3_MyD88 Rank (after) [3]: 624 | P3_MyD88 Rank (before) [4]: 3279

SSFREALWRLIELSTK
P3_MyD88 Rank (after) [3]: 667 | P3_MyD88 Rank (before) [4]: 3223

CALCELLQILHARGLF
P8_MyD88 Rank (after) [1]: 725 | P8_MyD88 Rank (before) [2]: 1345

DYTSSPWALEELLKIM
Rank (after) [9]: 159 | Rank (before) [10]: 171 | Population [16]: 0.00809%
